# In US12649751B2 (Arcus Biosciences, Inc., priority 2022, dated 2026):
# Where two headings read alike, the source gives them in different places.
# Assays:
# [1] = tested on: p-SLP-76 (Ser376) in Jurkat cells; assay: pSLP76 Cellular Assay (AlphaLISA SureFire Ultra p-SLP-76 (Ser376), anti-CD3 activated Jurkat cells); assay type: cell-based; details: Homo sapiens, read-out: Cellular Potency
# Outline: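 Read-out is AlphaLISA p-SLP-76 (Ser376) signal at 570 nm in Jurkat lysates, with IC50 fitted by 4-parameter logistic. Cells were starved overnight, exposed 1 h at 37 °C to 22 twofold compound dilutions in HBSS, then activated 45 min with anti-CD3 (0.025 mg/ml stock added).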
# [2] = target: HPK1 (Homo sapiens, UniProt Q92918); assay: HPK1 Biochemical Assay (ADP-Glo luminescence; low ATP 10 μM or high ATP 200 μM)
# [3] = pSLP76 (Ser376) AlphaLISA, anti-CD3 activated Jurkat cells
# [4] = HPK1 ADP-Glo assay, high ATP (200 μM ATP, 5 nM HPK1), read-out: Biochemical Potency (high ATP)
# [5] = Jurkat cells, anti-CD3 stimulation, pSLP76
# [6] = 2 nM HPK1, 10 μM ATP, read-out: Biochemical Potency (low ATP)
# [7] = HPK1 ADP-Glo assay, low ATP (10 μM ATP, 2 nM HPK1), read-out: Biochemical Potency (low ATP)
# [8] = 5 nM HPK1, 200 μM ATP, read-out: Biochemical Potency (high ATP)
# Sequence of HPK1 (Q92918 whole entry, species assumed): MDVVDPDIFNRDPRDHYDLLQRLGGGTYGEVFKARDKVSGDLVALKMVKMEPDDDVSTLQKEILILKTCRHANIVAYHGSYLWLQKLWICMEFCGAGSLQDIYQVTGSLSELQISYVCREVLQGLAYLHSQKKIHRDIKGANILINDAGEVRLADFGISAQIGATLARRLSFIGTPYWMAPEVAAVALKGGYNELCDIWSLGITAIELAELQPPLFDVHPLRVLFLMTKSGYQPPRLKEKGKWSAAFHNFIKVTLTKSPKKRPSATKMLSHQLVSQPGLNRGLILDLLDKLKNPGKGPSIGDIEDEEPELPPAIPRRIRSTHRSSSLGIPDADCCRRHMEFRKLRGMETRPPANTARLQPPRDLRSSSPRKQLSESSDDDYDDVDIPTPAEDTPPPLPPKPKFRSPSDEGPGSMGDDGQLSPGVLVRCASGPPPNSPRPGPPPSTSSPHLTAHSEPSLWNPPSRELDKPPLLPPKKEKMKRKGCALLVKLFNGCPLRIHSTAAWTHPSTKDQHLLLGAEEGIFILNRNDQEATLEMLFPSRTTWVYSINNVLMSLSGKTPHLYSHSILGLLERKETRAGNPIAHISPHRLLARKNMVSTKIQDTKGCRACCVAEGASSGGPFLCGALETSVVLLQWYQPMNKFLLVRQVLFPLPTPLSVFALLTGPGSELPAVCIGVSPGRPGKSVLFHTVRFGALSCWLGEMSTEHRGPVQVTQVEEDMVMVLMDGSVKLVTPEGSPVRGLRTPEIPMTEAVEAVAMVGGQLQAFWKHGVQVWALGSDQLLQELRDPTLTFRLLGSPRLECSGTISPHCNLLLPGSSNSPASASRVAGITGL
SMILES,"IC50 [1, 3]","IC50 [2, 4]","IC50 [1, 5]","IC50 [2, 6]",also measured
"CNS(=O)(=O)c1cccc(-c2nc3cc(Nc4cncc(N5C[C@@H]6C[C@H]5CN6C)n4)ncc3s2)c1 [Example 290, N-methyl-3-[6-({6-[(1S,4S)-5-methyl-2,5-diazabicyclo[2.2.1]heptan-2-yl]pyrazin-2-yl}amino)-[1,3]thiazolo[5,4-c]pyridin-2-yl]benzene-1-sulfonamide]",,,100 to 1000 nM,< 100 nM,
"CS(=O)(=O)c1cccc(-c2nc3cc(Nc4cccc(N5C[C@@H]6C[C@H]5CN6)n4)ncc3s2)c1 [Example 141, 6-[(1S,4S)-2,5-Diazabicyclo[2.2.1]heptan-2-yl]-N-[2-(3-methanesulfonylphenyl)-[1,3]thiazolo[5,4-c]pyridin-6-yl]pyridin-2-amine]",,,100 to 1000 nM,< 100 nM,
CCN1C[C@@H]2C[C@H]1CN2c1nc(C)cc(Nc2cc3nc(-c4cccc(C(=O)N5CC[C@H](OC)C5)c4)sc3cn2)n1 [Example 534],100 to 1000 nM,< 100 nM,,,
CN1C[C@@H]2C[C@H]1CN2c1cc(Cl)cc(Nc2cc3nc(-c4ccnc(C(C)(C)O)c4)sc3cn2)n1 [Example 333],100 to 1000 nM,< 100 nM,,,
CNS(=O)(=O)c1cccc(-c2nc3cc(Nc4cncc(N5C[C@@H]6C[C@H]5CN6C)n4)ncc3s2)c1 [Example 416],100 to 1000 nM,,,,"IC50 [2, 7]: < 100 nM"
"Cc1cc(Nc2cc3nc(-c4ccnc(C(O)C5CC5)c4)sc3cn2)nc(N2C[C@@H]3C[C@H]2CN3CCO)n1 (stereo partly drawn) [Example 307, 2-[(1S,4S)-5-(4-{2-[2-(cyclopropylhydroxymethyl)-4-pyridyl]-3-thia-1,5-diaza-6-indenylamino}-6-methyl-2-pyrimidinyl)-2,5-diazabicyclo[2.2.1]hept-2-yl]ethanol]",< 100 nM,< 100 nM,,,
Cc1cc(Nc2cc3nc(-c4cccc(-c5ncccc5C(C)C)c4)sc3cn2)nc(N2C[C@@H]3C[C@H]2CN3C)n1 [Example 585],100 to 1000 nM,< 100 nM,,,
Cc1cc(Nc2cc3nc(-c4ccnc(N5C[C@H]6COC[C@H]6C5)c4)sc3cn2)nc(N2C[C@@H]3C[C@H]2CN3CCO)n1 [Example 452],100 to 1000 nM,< 100 nM,,,
"CN(C)C(=O)c1cccc(-c2nc3cc(Nc4cccc(N5C[C@@H]6C[C@H]5CN6C)n4)ncc3s2)c1 [Example 137, N,N-Dimethyl-3-[6-({6-[(1S,4S)-5-methyl-2,5-diazabicyclo[2.2.1]heptan-2-yl]pyridin-2-yl}amino)-[1,3]thiazolo[5,4-c]pyridin-2-yl]benzamide]",,,100 to 1000 nM,< 100 nM,
CCN1C[C@@H]2C[C@H]1CN2c1nc(C)cc(Nc2cc3nc(-c4cncc(N5C[C@H]6COC[C@H]6C5)c4)sc3cn2)n1 [Example 472],100 to 1000 nM,< 100 nM,,,
Cc1cc(Nc2cc3nc(-c4cnn(C)c4)sc3cn2)nc(N2C[C@@H]3C[C@H]2CN3C[C@@H](C)O)n1 [Example 499],< 100 nM,< 100 nM,,,
Cc1cc(Nc2cc3nc(-c4cnn(C)c4-c4ccccc4)sc3cn2)nc(N2C[C@@H]3C[C@H]2CN3C)n1 [Example 368],100 to 1000 nM,< 100 nM,,,
"Cc1cccnc1-c1nc2cc(Nc3ccc4c(n3)[C@](C)(N)CCC4)ncc2s1 [Example 316, (8R)-8-methyl-N2-[2-(3-methylpyridin-2-yl)-[1,3]thiazolo[5,4-c]pyridin-6-yl]-5,6,7,8-tetrahydroquinoline-2,8-diamine]",1000 to 5000 nM,,,,"IC50 [2, 7]: 1000 to 5000 nM"
"CN1C[C@@H]2C[C@H]1CN2c1cccc(Nc2cc3nc(-c4ncccc4C(F)(F)F)sc3cn2)n1 [Example 92, 6-[(1S,4S)-5-Methyl-2,5-diazabicyclo[2.2.1]heptan-2-yl]-N-{2-[3-(trifluoromethyl)pyridin-2-yl]-[1,3]thiazolo[5,4-c]pyridin-6-yl}pyridin-2-amine]",,,100 to 1000 nM,< 100 nM,
Cc1cc(Nc2cc3nc(-c4cccc(C(=O)N5CCOC[C@H]5C)c4)sc3cn2)nc(N2C[C@@H]3C[C@H]2CN3CCO)n1 [Example 547],100 to 1000 nM,< 100 nM,,,
CCN1C[C@@H]2C[C@H]1CN2c1nc(C)cc(Nc2cc3nc(-c4cccc(S(=O)(=O)C5CC5)c4)sc3cn2)n1 [Example 340],< 100 nM,< 100 nM,,,
CC(=O)N1CCCc2c(-c3nc4cc(Nc5cc(C)nc(N6C[C@@H]7C[C@H]6CN7C)n5)ncc4s3)cccc21 [Example 573],1000 to 5000 nM,100 to 1000 nM,,,
CC(=O)N(C)CCN1C[C@@H]2C[C@H]1CN2c1nc(C)cc(Nc2cc3nc(-c4cccc(C(=O)N(C)C)c4)sc3cn2)n1 [Example 495],100 to 1000 nM,< 100 nM,,,
Cc1cc(Nc2cc3nc(-c4cccc(C(=O)N5C[C@@H]6C[C@H]5CO6)c4)sc3cn2)nc(N2C[C@@H]3C[C@H]2CN3CCO)n1 [Example 564],100 to 1000 nM,< 100 nM,,,
Cc1cc(Nc2cc3nc(-c4cccc(OC(F)F)c4)sc3cn2)nc(N2C[C@@H]3C[C@H]2CN3C)n1 [Example 390],100 to 1000 nM,< 100 nM,,,

# Now from value to molecule, other results behind:
"IC50 [1, 3]","IC50 [2, 4]","IC50 [1, 5]","IC50 [2, 6]",SMILES,also measured
100 to 1000 nM,< 100 nM,,,Cc1cc(Nc2cc3nc(-c4ccnc(N5CCOC[C@H]5C)c4)sc3cn2)nc(N2C[C@@H]3C[C@H]2CN3C)n1 [Example 455],
,,100 to 1000 nM,< 100 nM,"Cc1ccnn1-c1nc2cc(Nc3ccc(N4CCOCC4)c(C(C)(C)N)n3)ncc2s1 [Example 270, 6-(2-Aminopropan-2-yl)-N-[2-(5-methyl-1H-pyrazol-1-yl)-[1,3]thiazolo[5,4-c]pyridin-6-yl]-5-(morpholin-4-yl)pyridin-2-amine]",
< 100 nM,,,,Cc1cccnc1-c1nc2cc(Nc3ccc(C4CCOCC4)c(N4C[C@@H]5C[C@H]4CN5)n3)ncc2s1 [Example 432],"IC50 [2, 7]: < 100 nM"
,,100 to 1000 nM,< 100 nM,"Cc1cccnc1-c1nc2cc(Nc3cccc(N4C[C@@H]5C[C@H]4CN5)n3)ncc2s1 [Example 78, 6-[(1S,4S)-2,5-Diazabicyclo[2.2.1]heptan-2-yl]-N-[2-(3-methylpyridin-2-yl)-[1,3]thiazolo[5,4-c]pyridin-6-yl]pyridin-2-amine]",
,,100 to 1000 nM,< 100 nM,"CN(C)Cc1nc(Nc2cc3nc(-c4ccncc4F)sc3cn2)ccc1N1CCOCC1 [Example 4, 6-[(Dimethylamino)methyl]-N-[2-(3-fluoropyridin-4-yl)-[1,3]thiazolo[5,4-c]pyridin-6-yl]-5-(morpholin-4-yl)pyridin-2-amine]",
,,100 to 1000 nM,< 100 nM,"Cc1ccncc1-c1nc2cc(Nc3ccc(N4CCOCC4)c(CN(C)C)n3)ncc2s1 [Example 3, 6-[(Dimethylamino)methyl]-N-[2-(4-methylpyridin-3-yl)-[1,3]thiazolo[5,4-c]pyridin-6-yl]-5-(morpholin-4-yl)pyridin-2-amine]",
100 to 1000 nM,< 100 nM,,,COc1cccnc1-c1nc2cc(Nc3cc(C)nc(N4C[C@@H]5C[C@H]4CN5C)n3)ncc2s1 [Example 469],
,,100 to 1000 nM,< 100 nM,"Cn1cc(-c2nc3cc(Nc4ccc(N5CCOCC5)c(CN5CCCC5)n4)ncc3s2)cn1 [Example 24, N-[2-(1-Methyl-1H-pyrazol-4-yl)-[1,3]thiazolo[5,4-c]pyridin-6-yl]-5-(morpholin-4-yl)-6-[(pyrrolidin-1-yl)methyl]pyridin-2-amine]",
,,100 to 1000 nM,< 100 nM,"Cc1cccnc1-c1nc2cc(Nc3cc(C4CCOCC4)nc(N4C[C@@H]5C[C@H]4CN5C)n3)ncc2s1 [Example 249, 2-[(1S,4S)-5-Methyl-2,5-diazabicyclo[2.2.1]heptan-2-yl]-N-[2-(3-methylpyridin-2-yl)-[1,3]thiazolo[5,4-c]pyridin-6-yl]-6-(oxan-4-yl)pyrimidin-4-amine]","IC50 [2, 8]: < 100 nM"
,,100 to 1000 nM,< 100 nM,"Cc1ccnn1-c1nc2cc(Nc3cccc(N4C[C@@H]5C[C@H]4CN5C)n3)ncc2s1 [Example 205, N-[2-(5-Methyl-1H-pyrazol-1-yl)-[1,3]thiazolo[5,4-c]pyridin-6-yl]-6-[(1S,4S)-5-methyl-2,5-diazabicyclo[2.2.1]heptan-2-yl]pyridin-2-amine]","IC50 [2, 8]: < 100 nM"
,,1000 to 5000 nM,< 100 nM,"Cc1cccc(F)c1-c1nc2cc(Nc3ccc(N4CCOCC4)c(CN4CCCC4)n3)ncc2s1 [Example 16, N-[2-(2-Fluoro-6-methylphenyl)-[1,3]thiazolo[5,4-c]pyridin-6-yl]-5-(morpholin-4-yl)-6-[(pyrrolidin-1-yl)methyl]pyridin-2-amine]",
100 to 1000 nM,< 100 nM,,,Cc1cc(Nc2cc3nc(-c4cccc(N5CCOCC5)c4)sc3cn2)nc(N2C[C@@H]3C[C@H]2CN3CCO)n1 [Example 349],
100 to 1000 nM,< 100 nM,,,Cc1cc(Nc2cc3nc(-c4cncc(N5CCOCC5)c4)sc3cn2)nc(N2C[C@@H]3C[C@H]2CN3CCO)n1 [Example 477],
< 100 nM,< 100 nM,,,CC[C@@H]1COCCN1c1cc(-c2nc3cc(Nc4cc(C)nc(N5C[C@@H]6C[C@H]5CN6CC)n4)ncc3s2)ccn1 [Example 475],
100 to 1000 nM,< 100 nM,,,CCN1C[C@@H]2C[C@H]1CN2c1nc(C)cc(Nc2cc3nc(-c4cccc(C(=O)N5CCCOCC5)c4)sc3cn2)n1 [Example 531],
